# According to patent publication US11236059B2, “Targeted cytotoxic ratjadone derivatives and conjugates thereof” (HELMHOLTZ-ZENTRUM FUER INFEKTIONSFORSCHUNG GMBH, priority 2017, dated 2022):
# Read-outs that look alike come from different tables or passages of the source.
# Assays:
# [1] = target: T1, CRM1 (Homo sapiens, UniProt O14980); assay: Monitoring export inhibitory activity (translocation biosensor, HeLaRevBio cells); assay type: cell-based
# T1 construct: HeLa cells stably expressing a fluorescent translocation biosensor (HeLaRevBio); endogenous in cells; host or cells: HeLa (HeLaRevBio in A7; HeLa in A8)
# Experimental: Export inhibitory ability of compounds was evaluated with the translocation biosensor system. This cellular assay depends on a recombinantly expressed fusion protein consisting of a nuclear localization signal (SV40-NLS), glutathione S-transferase (GST), green fluorescent protein (GFP) and a nuclear export signal (HIV1-RevNES). Due to the two transport signals (NLS/NES), the biosensor is permanently shuttling between nucleus and cytoplasm but resides prominently in the cytoplasm due to a comparatively stronger NES. Export inhibiting compound induce a nuclear accumulation of the GFP-signal^[65,66] Cell lines were maintained as recommended by the American Type Culture Collection in DMEM containing 5% glutamine (Thermo Fisher Scientific, Waltham, USA) supplemented with 10% FBS (Thermo Fisher Scientific, Waltham, USA). For quantifying the nuclear export inhibitory effect, HeLa cells stably expressing a fluorescent translocation biosensor (HeLaRevBio)^[67] were seeded into black 96 well μclear plates (Greiner, Germany). They next day compounds were added covering an appropriate concentration range. After 1h of incubation, cells were fixed in 4% PFA for 10 min and permeabilized with 0.1% Triton X 100 in PBS for 5 min. After washing with PBS nuclei were labeled with Hoechst H33342 (30 min 10 μg/ml). The intracellular distribution of the biosensor-dependent GFP signal was quantitatively evaluated with the high content imaging system ImageXpress MicroXLS (Molecular Devices, Sunnyvale, USA). By using the translocation enhanced application module (Molecular Devices, Sunnyvale, USA) the GFP-intensity was quantified in the cytoplasm and nuclear region. As final readout the difference of Mean Inner and Mean Outer Intensity was calculated. IC50s of nuclear export inhibition were calculated using Sigma Plot with four parameter logistics curve regression (Systat Software GmbH, Erkrath, Germany). […] The following day compounds were added at 125 nM final concentration.
# [2] = system: KB 3.1 (DSMZ ACC 158) cells; assay: cells; settings: Homo sapiens, KB 3-1, 120 h
# [3] = system: SKOV-3 (DSMZ ATCC HTB 77) cells; assay: cells; assay type: cell-based; settings: Homo sapiens, SK-OV-3, 120 h
# Experimental: (§1) 60 μL of serial dilutions of the test compound were given to 120 μL of suspended cells (50.000/mL) in wells of 96-well plates. After 5 days of incubation growth inhibition (IC50) was determined using an MTT assay.^[64]
# [4] = system: MCF-7 (DSMZ ACC 115) cells; assay: cells; assay type: cell-based; settings: Homo sapiens, MCF7, 120 h
# Experimental: as §1
# [5] = system: A549 (DSMZ ACC 107) cells; assay: cells; assay type: cell-based; settings: Homo sapiens, A549, 120 h
# Experimental: as §1
# [6] = HeLa cells stably expressing translocation biosensor, 1h of incubation, read-out: IC50 [nM] CRM1 (nuclear export inhibition)
# [7] = read-out: IC50 [nM] KB-3.1, growth inhibition, 5 days of incubation, MTT assay
# [8] = read-out: IC50 [nM] SK-OV-3, growth inhibition, 5 days of incubation, MTT assay
# [9] = read-out: IC50 [nM] MCF-7, growth inhibition, 5 days of incubation, MTT assay
# [10] = read-out: IC50 [nM] A-549, growth inhibition, 5 days of incubation, MTT assay
# T1 sequence (O14980 whole entry): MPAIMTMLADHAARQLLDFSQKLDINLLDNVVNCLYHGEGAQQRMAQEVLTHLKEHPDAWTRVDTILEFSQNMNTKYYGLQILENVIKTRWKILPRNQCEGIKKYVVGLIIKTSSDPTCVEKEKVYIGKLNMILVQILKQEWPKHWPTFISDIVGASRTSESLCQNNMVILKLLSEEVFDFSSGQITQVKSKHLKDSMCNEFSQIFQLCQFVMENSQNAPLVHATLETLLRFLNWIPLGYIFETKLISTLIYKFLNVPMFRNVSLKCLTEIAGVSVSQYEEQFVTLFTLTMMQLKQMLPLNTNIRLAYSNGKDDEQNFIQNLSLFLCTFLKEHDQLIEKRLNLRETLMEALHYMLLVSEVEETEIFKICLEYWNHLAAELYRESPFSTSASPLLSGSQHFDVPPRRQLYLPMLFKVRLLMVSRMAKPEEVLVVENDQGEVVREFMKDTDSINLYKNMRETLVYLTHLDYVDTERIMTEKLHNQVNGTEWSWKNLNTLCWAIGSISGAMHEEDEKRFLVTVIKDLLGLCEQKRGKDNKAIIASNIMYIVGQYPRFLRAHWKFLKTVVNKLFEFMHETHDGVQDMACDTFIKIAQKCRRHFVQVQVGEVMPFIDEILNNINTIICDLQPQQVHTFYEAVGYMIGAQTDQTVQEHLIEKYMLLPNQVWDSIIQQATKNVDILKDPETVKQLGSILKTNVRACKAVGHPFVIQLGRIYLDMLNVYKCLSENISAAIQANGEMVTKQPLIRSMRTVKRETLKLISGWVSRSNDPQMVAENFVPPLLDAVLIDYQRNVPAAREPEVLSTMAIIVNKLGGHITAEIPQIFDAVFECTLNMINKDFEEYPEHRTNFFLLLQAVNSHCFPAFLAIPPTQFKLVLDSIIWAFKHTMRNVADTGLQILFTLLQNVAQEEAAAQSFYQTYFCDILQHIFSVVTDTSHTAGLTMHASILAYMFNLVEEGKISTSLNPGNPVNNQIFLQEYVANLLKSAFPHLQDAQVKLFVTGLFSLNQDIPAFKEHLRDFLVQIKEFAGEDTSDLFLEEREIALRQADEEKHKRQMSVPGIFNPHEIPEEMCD
SMILES,"IC50 [1, 6] [nM]","IC50 [2, 7] [nM]","IC50 [3, 8] [nM]","IC50 [4, 9] [nM]","IC50 [5, 10] [nM]",IC50 [1] [nM],IC50 ([2]; read-out: IC50 [nM] KB-3.1) [nM],"IC50 ([3]; growth inhibition, 5 days of incubation, MTT assay, read-out: IC50 [nM] SK-OV-3) [nM]","IC50 ([4]; growth inhibition, 5 days of incubation, MTT assay, read-out: IC50 [nM] MCF-7) [nM]","IC50 ([5]; growth inhibition, 5 days of incubation, MTT assay, read-out: IC50 [nM] A-549) [nM]"
"C#CCCOC(=O)N[C@H](/C=C/C=C(\C)C[C@@H](C)/C=C(C)\C=C\[C@H]1CC=CC(=O)O1)[C@@H]1C[C@@H](O)[C@H](C)[C@H](/C=C/C)O1 [Compound 24, But-3-yn-1-yl ((1R,2E,4E,7R,8Z,10E)-1-((2S,4R,5S,6S)-4-hydroxy-5-methyl-6-((E)-prop-1-en-1-yl)tetrahydro-2H-pyran-2-yl)-5,7,9-trimethyl-11-((R)-6-oxo-3,6-dihydro-2H-pyran-2-yl)undeca-2,4,8,10-tetraen-1-yl)carbamate]",46.1,0.47,0.45,0.27,1.25,,,,,
"C/C=C/[C@@H]1O[C@H]([C@@H](/C=C/C=C(\C)C[C@@H](C)/C=C(C)\C=C\[C@H]2CC=CC(=O)O2)NC(=O)OCc2ccc(NC(=O)[C@H](CCCNC(N)=O)NC(=O)[C@@H](NC(=O)OC[C@@H]3[C@@H]4CCC#CCC[C@@H]43)C(C)C)cc2)C[C@@H](O)[C@@H]1C [BCN—O(CO)HN-Val-Cit-PABO(CO)NH-Ratja 31, ((1R,8S,9s)-bicyclo[6.1.0]non-4-yn-9-yl)methyl ((S)-1-(((S)-1-((4-(((((1R,2E,4E,7R,8Z,10E)-1-((2S,4R,5S,6S)-4-hydroxy-5-methyl-6-((E)-prop-1-en-1-yl)tetrahydro-2H-pyran-2-yl)-5,7,9-trimethyl-11-((R)-6-oxo-3,6-dihydro-2H-pyran-2-yl)undeca-2,4,8,10-tetraen-1-yl)carbamoyl)oxy)methyl)phenyl)amino)-1-oxo-5-ureidopentan-2-yl)amino)-3-methyl-1-oxobutan-2-yl)carbamate]",,25.1,34.7,20.2,39.5,346,,,,
"C/C=C/[C@@H]1O[C@H]([C@H](/C=C/C=C(\C)C[C@@H](C)/C=C(C)\C=C\[C@H]2CC=CC(=O)O2)NC(=O)OC)C[C@@H](O)[C@@H]1C [16R-Amino-Ratjadone methyl carbamate 19, methyl ((1S,2E,4E,7R,8Z,10E)-1-((2S,4R,5S,6S)-4-hydroxy-5-methyl-6-((E)-prop-1-en-1-yl)tetrahydro-2H-pyran-2-yl)-5,7,9-trimethyl-11-((R)-6-oxo-3,6-dihydro-2H-pyran-2-yl)undeca-2,4,8,10-tetraen-1-yl)carbamate]",,2.53,,,,12.5,,,,
"C/C=C/[C@@H]1O[C@H]([C@@H](/C=C/C=C(\C)C[C@@H](C)/C=C(C)\C=C\[C@H]2CC=CC(=O)O2)NC(=O)CCSSc2ccccn2)C[C@@H](O)[C@@H]1C [2-PySS(CH2)2(CO)NH-Ratja 35, N-((1R,2E,4E,7R,8Z,10E)-1-((2S,4R,5S,6S)-4-Hydroxy-5-methyl-6-((E)-prop-1-en-1-yl)tetrahydro-2H-pyran-2-yl)-5,7,9-trimethyl-11-((R)-6-oxo-3,6-dihydro-2H-pyran-2-yl)undeca-2,4,8,10-tetraen-1-yl)-3-(pyridin-2-yldisulfaneyl)propanamide]",44.1,8.8,24.6,26,30.6,,,,,
"C/C=C/[C@@H]1O[C@H](C(=O)/C=C/C=C(\C)C[C@@H](C)/C=C(C)\C=C\[C@H]2CC=CC(=O)O2)CC(=O)[C@@H]1C [16,19-Dioxo-Ratjadone 10, (R)-6-((R,1E,3Z,7E,9E)-3,5,7-trimethyl-11-((2S,5R,6S)-5-methyl-4-oxo-6-((E)-prop-1-en-1-yl)tetrahydro-2H-pyran-2-yl)-11-oxoundeca-1,3,7,9-tetraen-1-yl)-5,6-dihydro-2H-pyran-2-one]",17.5,3.98,1.59,2.87,9.72,,,,,
"C/C=C/[C@@H]1O[C@H]([C@@H](/C=C/C=C(\C)C[C@@H](C)/C=C(C)\C=C\[C@H]2CC=CC(=O)O2)NC(=O)OC)C[C@@H](O)[C@@H]1C [16S-Amino-Ratjadone methyl carbamate 20, methyl ((1R,2E,4E,7R,8Z,10E)-1-((2S,4R,5S,6S)-4-hydroxy-5-methyl-6-((E)-prop-1-en-1-yl)tetrahydro-2H-pyran-2-yl)-5,7,9-trimethyl-11-((R)-6-oxo-3,6-dihydro-2H-pyran-2-yl)undeca-2,4,8,10-tetraen-1-yl)carbamate]",,8.18,,,,23.5,,,,
"C#CCCOC(=O)N[C@@H](/C=C/C=C(\C)C[C@@H](C)/C=C(C)\C=C\[C@H]1CC=CC(=O)O1)[C@@H]1C[C@@H](O)[C@H](C)[C@H](/C=C/C)O1 [Compound 25, But-3-yn-1-yl ((1S,2E,4E,7R,8Z,10E)-1-((2S,4R,5S,6S)-4-hydroxy-5-methyl-6-((E)-prop-1-en-1-yl)tetrahydro-2H-pyran-2-yl)-5,7,9-trimethyl-11-((R)-6-oxo-3,6-dihydro-2H-pyran-2-yl)undeca-2,4,8,10-tetraen-1-yl)carbamate]",12,1.23,1.2,0.62,2.45,,,,,
"C#CCNC1C[C@@H]([C@H](O)/C=C/C=C(\C)C[C@@H](C)/C=C(C)\C=C\[C@H]2CC=CC(=O)O2)O[C@@H](/C=C/C)[C@H]1C (stereo partly drawn) [N-Propargyl-19-amino-Ratjadone 42, (6R)-6-((1E,3Z,5R,7E,9E,11R)-11-hydroxy-3,5,7-trimethyl-11-((2S,5S,6S)-5-methyl-6-((E)-prop-1-en-1-yl)-4-(prop-2-yn-1-ylamino)tetrahydro-2H-pyran-2-yl)undeca-1,3,7,9-tetraen-1-yl)-5,6-dihydro-2H-pyran-2-one]",18.3,1.23,2.63,1.31,1.12,,,,,
"C#CCCOC(=O)N[C@H](C(=O)N[C@@H](CCCNC(N)=O)C(=O)Nc1ccc(COC(=O)N[C@H](/C=C/C=C(\C)C[C@@H](C)/C=C(C)\C=C\[C@H]2CC=CC(=O)O2)[C@@H]2C[C@@H](O)[C@H](C)[C@H](/C=C/C)O2)cc1)C(C)C [But-3-yn-1-yl ((S)-1-(((S)-1-((4-(((((1R,2E,4E,7R,8Z,10E)-1-((2S,4R,5S,6S)-4-hydroxy-5-methyl-6-((E)-prop-1-en-1-yl)tetrahydro-2H-pyran-2-yl)-5,7,9-trimethyl-11-((R)-6-oxo-3,6-dihydro-2H-pyran-2-yl)undeca-2,4,8,10-tetraen-1-yl)carbamoyl)-oxy)methyl)phenyl)amino)-1-oxo-5-ureidopentan-2-yl)amino)-3-methyl-1-oxobutan-2-yl)carbamate]",,,,,,,9.2,13.6,12.5,25.1
"C#CCCC(=O)N[C@H](/C=C/C=C(\C)C[C@@H](C)/C=C(C)\C=C\[C@H]1CC=CC(=O)O1)[C@@H]1C[C@@H](O)[C@H](C)[C@H](/C=C/C)O1 [Compound 22, N-((1R,2E,4E,7R,8Z,10E)-1-((2S,4R,5S,6S)-4-hydroxy-5-methyl-6-((E)-prop-1-en-1-yl)tetrahydro-2H-pyran-2-yl)-5,7,9-trimethyl-11-((R)-6-oxo-3,6-dihydro-2H-pyran-2-yl)undeca-2,4,8,10-tetraen-1-yl)pent-4-ynamide]",23.2,1.05,0.44,0.4,0.58,,,,,
